The structures appear in SMILES notation.

For this test, the target named is T1, GLUT1 (Homo sapiens, UniProt P11166).
T1 sequence (P11166 1-492): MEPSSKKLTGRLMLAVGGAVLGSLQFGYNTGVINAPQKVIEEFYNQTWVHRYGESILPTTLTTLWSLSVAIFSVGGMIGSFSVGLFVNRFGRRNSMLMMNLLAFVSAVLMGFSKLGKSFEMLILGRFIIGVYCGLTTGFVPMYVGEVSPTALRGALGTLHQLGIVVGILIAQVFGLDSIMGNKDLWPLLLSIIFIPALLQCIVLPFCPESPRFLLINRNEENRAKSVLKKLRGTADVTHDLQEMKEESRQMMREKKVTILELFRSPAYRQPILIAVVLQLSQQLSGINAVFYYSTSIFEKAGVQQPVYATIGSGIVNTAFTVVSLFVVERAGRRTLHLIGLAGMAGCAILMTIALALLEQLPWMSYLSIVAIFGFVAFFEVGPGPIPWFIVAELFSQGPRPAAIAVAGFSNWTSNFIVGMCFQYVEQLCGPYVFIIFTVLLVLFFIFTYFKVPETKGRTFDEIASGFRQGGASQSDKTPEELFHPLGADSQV
Kind of test: Indirect measurement of GLUT1 activity by quantification of intracellular ATP levels (glucose induced ATP increase). The class given is cell-based. The arrangement: endogenous in cells; host or cells: DLD1 or CHO-K1. As to conditions: read-out: IC50 regarding glucose induced ATP increase (GLUT1 inhibition). A digest of the protocol: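 Intracellular ATP was measured by CellTiter-Glo luminescence as an indirect readout of transport: glucose-driven for GLUT1, fructose-driven for GLUT2. DLD1 or CHO-K1 cells were used alongside an oxidative phosphorylation inhibitor. Beforehand, cells were held overnight in glucose-free 1% FCS medium to deplete ATP.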
Regarding `Cc1nn(Cc2ccc(C#N)cn2)c(C)c1NC(=O)c1cc(C(F)(F)F)nc2ccc(Br)cc12` [Example 353, 6-bromo-N-{1-[(5-cyanopyridin-2-yl)methyl]-3,5-dimethyl-1H-pyrazol-4-yl}-2-(trifluoromethyl)quinoline-4-carboxamide], the half-inhibitory concentration (IC50) came to 2.3 nM.
For the compound `Cc1c(NC(=O)c2cc(C(N)=O)nc3cc(F)ccc23)c(C(F)(F)F)nn1Cc1c(F)cccc1F` [Example 1627], the half-maximal inhibitory concentration (IC50) turned out to be 30.5 nM.
On to `CCc1noc(Cn2nc(C)c(NC(=O)c3cc(C(F)(F)F)nc4ccc(Br)cc34)c2C)n1` [Example 1570], for which the concentration for half-maximal inhibition (IC50) amounted to 48.2 nM.
To `Cc1nn(Cc2ccc(F)cc2)c(C)c1NC(=O)c1cc(C(F)(F)F)nc2ccc(Br)cc12` [Example 9, 6-bromo-N-[1-(4-fluorobenzyl)-3,5-dimethyl-1H-pyrazol-4-yl]-2-(trifluoromethyl)quinoline-4-carboxamide] belongs 6.2 nM; to `Cc1c(NC(=O)c2cc(C(N)=O)nc3cc(F)c(Cl)cc23)c(C(F)(F)F)nn1Cc1ccc(CC(F)(F)F)cc1` [Example 1716], 3 nM; to `Cc1nn(Cc2ccccc2OC(F)(F)F)c(C)c1NC(=O)c1cc(C(F)(F)F)nc2c(Cl)cc(Cl)cc12` [Example 1288], 6250 nM.
As for `CNC(=O)N(C)CCNC(=O)c1ccc(Cn2nc(C)c(NC(=O)c3cc(C(F)(F)F)nc4ccc(Br)cc34)c2C)cc1` [Example 1043], the IC50 stood at 8.8 nM.
Turning to `Cc1c(NC(=O)c2cc(C(N)=O)nc3cccc(F)c23)c(C(F)(F)F)nn1Cc1ccc(OC(F)(F)F)cc1` [Example 1467], the IC50 came out at 7.6 nM.
With `Cc1nn(Cc2ccc(C(=O)N[C@H](C)CO)cc2)c(C)c1NC(=O)c1cc(C(F)(F)F)nc2ccc(Br)cc12` [Example 1179] the figure was 228 nM; with `Cc1nn(Cc2cc(C#N)no2)c(C)c1NC(=O)c1cc(C(N)=O)nc2cc(F)ccc12` [Example 1566], 14.2 nM; with `CCOC(=O)N=S(C)(=O)c1ccc(Cn2nc(C)c(NC(=O)c3cc(C(F)(F)F)nc4ccc(Br)cc34)c2C)cc1` (racemic) [Example 1433], 717 nM.
`Cc1nn(Cc2ccc(C(C)O)cc2)c(C)c1NC(=O)c1cc(C(N)=O)nc2ccccc12` (racemic) [Example 1635]: the concentration for half-maximal inhibition (IC50) turned out to be 45.4 nM.
In the case of `Cc1ccc2nc(C)cc(C(=O)Nc3c(C)nn(Cc4ccc(C(=O)NCCO)cc4)c3C)c2c1` [Example 202, N-(1-{4-[(2-hydroxyethyl)carbamoyl]benzyl}-3,5-dimethyl-1H-pyrazol-4-yl)-2,6-dimethylquinoline-4-carboxamide], the 50% inhibitory concentration (IC50) was 562 nM.
As to `Cc1nn(Cc2ccccc2C#N)c(C)c1NC(=O)c1cc(C(N)=O)nc2cccc(F)c12` [Example 267, N^4-[1-(2-cyanobenzyl)-3,5-dimethyl-1H-pyrazol-4-yl]-5-fluoroquinoline-2,4-dicarboxamide], the half-inhibitory concentration (IC50) turned out to be 2.6 nM.
Turning to `Cc1c(NC(=O)c2cc(C(N)=O)nc3cc(F)c(Cl)cc23)c(C(F)(F)F)nn1Cc1ccccc1C#N` [Example 270, 6-chloro-N^4-[1-(2-cyanobenzyl)-5-methyl-3-(trifluoromethyl)-1H-pyrazol-4-yl]-7-fluoroquinoline-2,4-dicarboxamide], the half-inhibitory concentration (IC50) was 1.8 nM.
As for `COc1cc(C(=O)Nc2c(C)nn(CCCc3ccc(C#N)cc3)c2C)c2ccccc2n1` [Example 349, N-{1-[3-(4-cyanophenyl)propyl]-3,5-dimethyl-1H-pyrazol-4-yl}-2-methoxyquinoline-4-carboxamide], the IC50 is 15.7 nM.
Turning to `Cc1c(NC(=O)c2cc(C(F)(F)F)nc3ccc(Br)cc23)c(C(F)(F)F)nn1Cc1ccc(C(=O)N2CCOCC2)cn1` [Example 1200], the IC50 is 408 nM.
In the case of `Cc1nn(Cc2ccc(C#N)cc2)c(C)c1NC(=O)c1cc(C(F)(F)F)nc2ccc(-c3c(C)noc3C)cc12` [Example 1198], the IC50 was determined as 390 nM.
For the compound `Cc1ccc2nc(C)cc(C(=O)Nc3c(C)nn(Cc4ccccc4C)c3C)c2c1` [Example 111, N-[3,5-dimethyl-1-(2-methylbenzyl)-1H-pyrazol-4-yl]-2,6-dimethylquinoline-4-carboxamide], the IC50 worked out at 708 nM.
Turning to `Cc1nn(Cc2ccc(C(=O)Nc3cccc(C(N)=O)c3)cc2)c(C)c1NC(=O)c1cc(C(F)(F)F)nc2ccc(Br)cc12` [Example 1185], the IC50 is 247 nM.
To `Cc1c(NC(=O)c2cc(C(N)=O)nc3cc(F)ccc23)c(C(F)(F)F)nn1Cc1ccccc1C#N` [Example 272, N^4-[1-(2-cyanobenzyl)-5-methyl-3-(trifluoromethyl)-1H-pyrazol-4-yl]-7-fluoroquinoline-2,4-dicarboxamide] belongs 2.5 nM.
As to `Cc1nn(Cc2ccc(F)cc2)c(C(=O)N(C)C)c1NC(=O)c1cc(C(F)(F)F)nc2ccc(Br)cc12` [Example 1180], the half-inhibitory concentration (IC50) turned out to be 231 nM.
As to `COc1cc(C(=O)Nc2c(C)nn(Cc3ccccc3C)c2C)c2ccccc2n1` [Example 51, N-[3,5-dimethyl-1-(2-methylbenzyl)-1H-pyrazol-4-yl]-2-methoxyquinoline-4-carboxamide], the concentration for half-maximal inhibition (IC50) stood at 50 nM.
With `Cc1nn(Cc2ccc(C(=O)Nc3ccccc3Cl)cc2)c(C)c1NC(=O)c1cc(C(F)(F)F)nc2ccc(Br)cc12` [Example 1040], the IC50 is 6.7 nM.
`Cc1ccc2c(C(=O)Nc3c(C)nn(Cc4ccc(F)cc4)c3C)cc(C)nc2c1` [Example 1278]: the half-maximal inhibitory concentration (IC50) was 3910 nM.
With `Cc1nn(Cc2c(F)cccc2F)c(C)c1NC(=O)c1cc(C(F)(F)F)nc2c(Cl)cc(Cl)cc12` [Example 20, 6,8-dichloro-N-[1-(2,6-difluorobenzyl)-3,5-dimethyl-1H-pyrazol-4-yl]-2-(trifluoromethyl)quinoline-4-carboxamide], the 50% inhibitory concentration (IC50) came to 12.7 nM.
With `Cc1nn(CCOc2ccc(C#N)cc2)c(C)c1NC(=O)c1cc(C(N)=O)nc2cc(F)c(Cl)cc12` [Example 294, 6-chloro-N^4-{1-[2-(4-cyanophenoxy)ethyl]-3,5-dimethyl-1H-pyrazol-4-yl}-7-fluoroquinoline-2,4-dicarboxamide], the IC50 was 6.6 nM.
For the compound `CCc1cc(C(=O)Nc2c(C)nn(Cc3ccc(F)cc3)c2C)c2ccccc2n1` [Example 69, 2-ethyl-N-[1-(4-fluorobenzyl)-3,5-dimethyl-1H-pyrazol-4-yl]quinoline-4-carboxamide], the half-maximal inhibitory concentration (IC50) was determined as 164 nM.
With `Cc1nn(Cc2ccc(CC(N)=O)cc2)c(C)c1NC(=O)c1cc(C(F)(F)F)nc2ccc(Br)cc12` [Example 152, N-{1-[4-(2-amino-2-oxoethyl)benzyl]-3,5-dimethyl-1H-pyrazol-4-yl}-6-bromo-2-(trifluoromethyl)quinoline-4-carboxamide] the figure was 58.3 nM; with `Cc1c(NC(=O)c2cc(C(F)(F)F)nc3ccc(Br)cc23)c(C(F)(F)F)nn1Cc1ccc(C#N)cc1F` [Example 1358], 4.3 nM; with `Cc1c(NC(=O)c2cc(C(N)=O)nc3ccccc23)c(C#N)nn1Cc1ccc(F)cc1` [Example 308, N^4-[3-cyano-1-(4-fluorobenzyl)-5-methyl-1H-pyrazol-4-yl]quinoline-2,4-dicarboxamide], 2.7 nM.
Consider `Cc1nn(Cc2ccc(C(=O)N3CCC(O)CC3)cc2)c(C)c1NC(=O)c1cc(C(F)(F)F)nc2ccc(Br)cc12` [Example 1217], for which the IC50 turned out to be 676 nM.
With `Cc1nn(CC2CCN(S(=O)(=O)CCCC#N)CC2)c(C)c1NC(=O)c1cc(C(N)=O)nc2ccccc12` [Example 1512], the concentration for half-maximal inhibition (IC50) is 105 nM.
With `COc1ccc(Cn2nc(C)c(NC(=O)c3cc(C(N)=O)nc4ccc(F)cc34)c2C)cc1` [Example 227, 6-fluoro-N^4-[1-(4-methoxybenzyl)-3,5-dimethyl-1H-pyrazol-4-yl]quinoline-2,4-dicarboxamide], the IC50 is 4.6 nM.
As to `Cc1nn(Cc2ccc(C(C)C)cc2)c(C)c1NC(=O)c1cc(C(N)=O)nc2cc(F)ccc12` [Example 1404], the concentration for half-maximal inhibition (IC50) was 3.8 nM.
For the compound `COc1cc(C(=O)Nc2c(C(F)(F)F)nn(Cc3ccc(C#N)cc3)c2C)c2ccccc2n1` [Example 1075], the IC50 was found to be 22.5 nM.
In the case of `COc1cccc(Cn2nc(C(F)(F)F)c(NC(=O)c3cc(C(N)=O)nc4cc(F)c(Cl)cc34)c2C)c1` [Example 1446], the IC50 amounted to 1.9 nM.
With `CCOC(=O)c1cc(Cn2nc(C)c(NC(=O)c3cc(C(N)=O)nc4cc(F)ccc34)c2C)on1` [Example 1670], the concentration for half-maximal inhibition (IC50) stood at 17.1 nM.
On to `Cc1c(NC(=O)c2cc(C(N)=O)nc3ccccc23)c(C(F)(F)F)nn1Cc1cccc(C#N)n1` [Example 1690], for which the IC50 was found to be 353 nM.
In the case of `Cc1nn(Cc2c(F)cccc2F)c(C)c1NC(=O)c1cc(C(N)=O)nc2ccccc12` [Example 1632], the IC50 came out at 10 nM.
`Cc1nn(C(C)CCc2ccc(F)cc2)c(C)c1NC(=O)c1cc(C(N)=O)nc2ccccc12` (racemic) [Example 1379]: the IC50 stood at 39.4 nM.
With `Cc1c(NC(=O)c2cc(C(N)=O)nc3cc(F)ccc23)c(C(F)(F)F)nn1Cc1cccc(C#N)n1` [Example 1687] the figure was 128 nM.
For the compound `Cc1c(NC(=O)c2cc(C(N)=O)nc3cc(F)c(Cl)cc23)c(C(F)(F)F)nn1Cc1ccc(F)cc1F` [Example 1441], the half-maximal inhibitory concentration (IC50) turned out to be 6.5 nM.
For the compound `COc1cccc(Cn2nc(C(F)(F)F)c(NC(=O)c3cc(C(N)=O)nc4cccc(F)c34)c2C)c1` [Example 1449], the IC50 came out at 18.7 nM.

For the origin of these results see patent US20170037028A1 (BAYER PHARMA AKTIENGESELLSCHAFT, priority 2013, published 2017).
